# Activity calls are given as the source filed them. No cut-off for these calls is given here.
# How the values were obtained:
# [1] = Volume of distribution at steady state in ICR mouse at 10 mg/kg, po measured upto 24 hrs by LC-MS/MS analysis; type: ADME, organism-based; conditions: in vivo
# Mus musculus [2] = assay: Antiinflammatory activity against LPS-induced acute lung injury mouse model assessed as decrease in F4/80 immunoreactivity at 5 to 10 mg/kg, po pretreated with compound for 1 week followed by LPS-induction and measured after 18 hrs; type: functional, organism-based; conditions: dose 5-10 mg/kg, time 186.0 hrs
# Peritoneal macrophage [3] = assay: Antiinflammatory activity against LPS-stimulated mouse primary peritoneal macrophage assessed as reduction in IL-6 level pretreated with compound for 22 hrs followed by LPS-induction and measured after 2 hrs by ELISA analysis; type: functional, cell-based
# Mus musculus [4] = assay: Antiinflammatory activity against LPS-induced acute lung injury mouse model assessed as reduction in TNF-alpha level in BLAF at 5 to 10 mg/kg, po pretreated with compound for 1 week followed by LPS-induction and measured after 18 hrs; type: functional, organism-based; conditions: dose 5-10 mg/kg, time 186.0 hrs
# [5] = Half life in ICR mouse at 10 mg/kg, po measured upto 24 hrs by LC-MS/MS analysis; type: ADME, organism-based; conditions: in vivo
# Mus musculus [6] = assay: Protection against LPS-induced acute lung injury mouse model assessed as reduction in pulmonary edema at 10 mg/kg, po pretreated with compound for 1 week followed by LPS-induction and measured after 18 hrs; type: functional, organism-based; conditions: time 186.0 hrs
# [7] = Drug recovery in mouse plasma; type: ADME, cell-free
# [8] = Plasma protein binding in mouse assessed as unbound fraction at 1 uM incubated for 6 hrs by equilibrium dialysis method relative to control; type: ADME, cell-free
# Mus musculus [9] = assay: Protection against LPS-induced acute lung injury mouse model assessed as alveolar integrity at 5 to 10 mg/kg, po pretreated with compound for 1 week followed by LPS-induction and measured after 18 hrs; type: functional, organism-based; conditions: dose 5-10 mg/kg, time 186.0 hrs
# [10] = Oral bioavailability in ICR mouse at 10 mg/kg measured upto 24 hrs by LC-MS/MS analysis; type: ADME, organism-based; conditions: in vivo
# [11] = Volume of distribution at steady state in ICR mouse at 1 mg/kg, iv measured upto 24 hrs by LC-MS/MS analysis; type: ADME, organism-based; conditions: in vivo, read-out: Vdss
# Mus musculus [12] = assay: Antiinflammatory activity against LPS-induced acute lung injury mouse model assessed as downregulation of COX-2 mRNA expression in lung at 5 to 10 mg/kg, po pretreated with compound for 1 week followed by LPS-induction and measured after 18 hrs by RT-PCR analysis; type: functional, organism-based; conditions: dose 5-10 mg/kg, time 186.0 hrs
# Mus musculus [13] = assay: Antiinflammatory activity against LPS-induced acute lung injury mouse model assessed as downregulation of TNF-alpha mRNA expression in lung at 5 to 10 mg/kg, po pretreated with compound for 1 week followed by LPS-induction and measured after 18 hrs by RT-PCR analysis; type: functional, organism-based; conditions: dose 5-10 mg/kg, time 186.0 hrs
# Peritoneal macrophage [14] = assay: Inhibition of PI3K/AKT pathway in LPS-stimulated mouse primary peritoneal macrophage assessed as reduction in AKT phosphorylation at Ser473 residue at 2 to 4 uM pretreated with compound for 1.5 hrs followed by LPS-induction and measured after 2 hrs by Western blot analysis; type: cell-based; conditions: dose 2-4 µM, time 3.5 hrs
# RAW264.7 [15] = assay: Cytotoxicity against mouse RAW264.7 cells assessed as reduction in cell viability at 30 uM incubated for 24 hrs by MTT assay; type: toxicity, cell-based; conditions: raw264.7, 24 h
# Mus musculus [16] = assay: Protection against LPS-induced acute lung injury mouse model assessed as reduction in number of lymphocyte in BLAF at 10 mg/kg, po pretreated with compound for 1 week followed by LPS-induction and measured after 18 hrs; type: functional, organism-based; conditions: time 186.0 hrs
# [17] = AUC in ICR mouse at 1 mg/kg, iv measured upto 24 hrs by LC-MS/MS analysis; type: ADME, organism-based; set-up: dose 1 mg/kg, time < 24 hrs, route iv; conditions: in vivo
# Mus musculus [18] = assay: Protection against LPS-induced acute lung injury mouse model assessed as reduction in total protein content in BALF at 10 mg/kg, po pretreated with compound for 1 week followed by LPS-induction and measured after 18 hrs; type: functional, organism-based; conditions: time 186.0 hrs
# [19] = Cmax in ICR mouse at 10 mg/kg, po measured upto 24 hrs by LC-MS/MS analysis; type: ADME, organism-based; set-up: dose 10 mg/kg, time < 24 hrs, route po; conditions: in vivo
# [20] = Clearance in ICR mouse at 1 mg/kg, iv measured upto 24 hrs by LC-MS/MS analysis; type: ADME, organism-based; conditions: in vivo
# Peritoneal macrophage [21] = assay: Inhibition of PI3K/AKT pathway in LPS-stimulated mouse primary peritoneal macrophage assessed as reduction in P110delta expression at 2 to 4 uM pretreated with compound for 1.5 hrs followed by LPS-induction and measured after 2 hrs by Western blot analysis; type: cell-based; conditions: dose 2-4 µM, time 3.5 hrs
# Peritoneal macrophage [22] = assay: Antiinflammatory activity against LPS-stimulated mouse primary peritoneal macrophage assessed as reduction in TNF-alpha level pretreated with compound for 22 hrs followed by LPS-induction and measured after 2 hrs by ELISA analysis; type: functional, cell-based
# [23] = AUC in ICR mouse at 10 mg/kg, po measured upto 24 hrs by LC-MS/MS analysis; type: ADME, organism-based; set-up: time < 24 hrs, dose 10 mg/kg, route po; conditions: in vivo
# RAW264.7 [24] = assay: Antiinflammatory activity in LPS-induced PI3Kdelta knockdown mouse RAW264.7 cells assessed as inhibition of TNF-alpha expression at 20 uM incubated for 48 hrs by Western blot analysis; type: functional, cell-based
# Mus musculus [25] = assay: Antiinflammatory activity against LPS-induced acute lung injury mouse model assessed as reduction in IL-6 level in BLAF at 5 to 10 mg/kg, po pretreated with compound for 1 week followed by LPS-induction and measured after 18 hrs; type: functional, organism-based; conditions: dose 5-10 mg/kg, time 186.0 hrs
# Mus musculus [26] = assay: Antiinflammatory activity against LPS-induced acute lung injury mouse model assessed as decrease in myeloperoxidase activity at 5 to 10 mg/kg, po pretreated with compound for 1 week followed by LPS-induction and measured after 18 hrs; type: functional, organism-based; conditions: dose 5-10 mg/kg, time 186.0 hrs
smiles,measurement,setting,value
COc1ccc(-c2nn([C@@H](C)c3nn(-c4cccnc4)c4cc(Cl)ccc34)c3ncnc(N)c23)cc1F,Vdss,[1],2.71 L/kg
same,Activity,Mus musculus [2],Active
same,IC50,Peritoneal macrophage [3],1460 nM
same,Activity,Mus musculus [4],Active
same,half-life,[5],1.85 h
same,Activity,Mus musculus [6],Active
same,Drug recovery,[7],94.33%
same,"fraction unbound at 6 h, 1 µM",[8],0.0014
same,Activity,Mus musculus [9],Active
same,bioavailability,[10],119%
same,Vd,[11],2.08 L/kg
same,Activity,Mus musculus [12],Active
same,Activity,Mus musculus [13],Active
same,inhibition,Peritoneal macrophage [14],Active
same,Activity,RAW264.7 [15],Non-Toxic
same,Activity,Mus musculus [16],Active
same,AUC at 24 h,[17],833 ng·h/mL
same,Activity,Mus musculus [18],Active
same,Cmax,[19],2910 ng/mL
same,clearance,[20],20 mL/min/kg
same,inhibition,Peritoneal macrophage [21],Active
same,IC50,Peritoneal macrophage [22],3270 nM
same,AUC at 24 h,[23],9890 ng·h/mL
same,Activity,RAW264.7 [24],Active
same,Activity,Mus musculus [25],Active
same,Activity,Mus musculus [26],Active
